Reference: US20080131384A1, “External Preparation for Skin Whitening, Whitening Agent, Whitening Method and Method of Production of External Preparation for Skin Whitening” (Shiseido Company, Ltd., priority 2004, published 2008)

System: Mouse B16 melanoma cells
Experiment: Visual determination of melanin amount and number of cells in cultured B16 melanoma cells
Assay type: cell-based
Parameters: key: Good: whiter in comparison with the reference, and determined that the amount of melanin was small; Fair: slightly whiter in comparison with the reference, and determined that the amount of melanin was slightly small; Poor: equally white in comparison with the reference, and determined that the amount of melanin was almost the same
Conditions: 3 days incubation
Method: Mouse B16 melanoma cells were used. These were cultured in Eagle's MEM containing 10% FBS and theophylline (0.09 mg/ml) in a CO2 incubator (95% air, 5% carbon dioxide) at 37° C. After 24 hours of culture, the sample solution was added to give a final concentration of 2×10^−3 to 2×10^−5 weight % (as dried extract concentration). After further incubation for 3 days, the amount of melanin was determined visually by the following method.
A diffuser plate was placed on the lid of a well plate, the number of cells and the amount of melanin in the cells were observed by an inverted microscope and compared with a reference sample to which no plant extracts were added. The results are shown in Table I. Further, as a positive control, a similar examination as the above was performed for arbutin, which is already known to have an action suppressing melanin production.
Judgment Criteria • Good: whiter in comparison with the reference, and determined that the amount of melanin was small. • Fair: slightly whiter in comparison with the reference, and determined that the amount of melanin was slightly small. • Poor: equally white in comparison with the reference, and determined that the amount of melanin was almost the same.

Structure (SMILES): OC[C@H]1O[C@@H](Oc2ccc(O)cc2)[C@H](O)[C@@H](O)[C@@H]1O [Arbutin, arbutin]
- Visual Evaluation of Melanin Production (sample concentration 0.001 mass %): Fair
- Visual Evaluation of Melanin Production (sample concentration 0.002 mass %): Good
